Source: patent publication US8940756B2, “Dihydronaphthyridines and related compounds useful as kinase inhibitors for the treatment of proliferative diseases” (Deciphera Pharmaceuticals, Inc., priority 2012, dated 2015)

Columns and labels:
[1] = biological target: Phospho-KIT (Tyr719) in GIST48 cells (Homo sapiens, UniProt P10721); test: GIST48 KIT Western Blot; assay type: cell-based; conditions: 4 hours, read-out: pKIT suppression by western blot analysi GIST48
[2] = biological target: T1, Phospho-KIT (Tyr719) in GIST T1 cells (Homo sapiens, UniProt P10721, DEL560-578); test: GIST T1 KIT Western Blot; assay type: cell-based; conditions: 4 hours, read-out: pKIT suppression by western blot analysi GIST T1
T1 construct: endogenous in cells; host or cells: GIST T1
T1 sequence (P10721 with tags, fused parts or gaps DEL560-578): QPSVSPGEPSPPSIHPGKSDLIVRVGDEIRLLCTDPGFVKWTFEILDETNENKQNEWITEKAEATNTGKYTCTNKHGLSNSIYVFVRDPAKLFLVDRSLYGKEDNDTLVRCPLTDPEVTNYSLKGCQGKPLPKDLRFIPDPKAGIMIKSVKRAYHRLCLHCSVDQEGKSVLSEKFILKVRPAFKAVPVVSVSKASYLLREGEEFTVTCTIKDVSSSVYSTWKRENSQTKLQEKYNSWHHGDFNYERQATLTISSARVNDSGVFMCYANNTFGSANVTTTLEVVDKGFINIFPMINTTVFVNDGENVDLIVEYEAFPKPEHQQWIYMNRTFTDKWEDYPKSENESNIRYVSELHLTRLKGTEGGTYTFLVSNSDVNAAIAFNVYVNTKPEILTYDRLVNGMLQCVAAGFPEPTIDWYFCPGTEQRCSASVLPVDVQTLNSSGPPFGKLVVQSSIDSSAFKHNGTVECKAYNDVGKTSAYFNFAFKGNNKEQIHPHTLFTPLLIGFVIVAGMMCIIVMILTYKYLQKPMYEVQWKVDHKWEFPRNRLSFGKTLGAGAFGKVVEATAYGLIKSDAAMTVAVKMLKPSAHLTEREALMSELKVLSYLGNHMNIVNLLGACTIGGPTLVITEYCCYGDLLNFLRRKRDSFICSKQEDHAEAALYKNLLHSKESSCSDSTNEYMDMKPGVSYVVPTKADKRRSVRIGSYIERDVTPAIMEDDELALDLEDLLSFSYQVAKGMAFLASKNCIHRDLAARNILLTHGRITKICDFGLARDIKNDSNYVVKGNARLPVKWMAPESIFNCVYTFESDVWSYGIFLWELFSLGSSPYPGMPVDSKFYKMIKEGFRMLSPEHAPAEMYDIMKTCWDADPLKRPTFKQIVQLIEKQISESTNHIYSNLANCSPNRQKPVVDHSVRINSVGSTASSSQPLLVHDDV
Protocol: GIST48, GIST430, and GIST882 cells were obtained from J. Fletcher (Brigham and Women's Hospital, Boston, Mass.). GIST T1 cells were obtained from B. Rubin (Cleveland Clinic, Cleveland, Ohio) and Professor Takahiro Taguchi (Kochi Medical School, Nankoku, Kochi, Japan). […] GIST430 cells were grown in Ham's F10 medium supplemented with 15% characterized fetal bovine serum (Invitrogen, Carlsbad, Calif.), 30 mg/L bovine pituitary extract (BD Biosciences, San Jose, Calif.), 0.5% Mito+ serum extender (BD Biosciences, San Jose, Calif.), 1 unit/mL penicillin G, 1 μg/ml streptomycin, and 0.29 mg/mL L-glutamine at 37° C., 5% CO2, 95% humidity. GIST T1 cells were grown in DMEM medium supplemented with 10% characterized fetal bovine serum (Invitrogen, Carlsbad, Calif.), 1 unit/mL penicillin G, 1 ng/ml streptomycin, and 0.29 mg/mL L-glutamine at 37° C., 5% CO2, and 95% humidity. […]
One hundred twenty-five thousand cells were added per well in a 24-well tissue-culture treated plate. […] Phospho-KIT (Tyr719) was detected using an antibody from Cell Signaling Technology (Beverly, Mass.), ECL Plus detection reagent (GE Healthcare, Piscataway, N.J.) and a Molecular Devices Storm 840 phosphorimager in fluorescence mode. […] IC50 values were calculated using Prism software (Graphpad, San Diego, Calif.).

[3] = biological target: T2, c-KIT VVDV kinase (V559 and V560 deleted and D816V mutation, Seq ID no. 5) (Homo sapiens, UniProt P10721, D816V/DEL559-560); test: cKIT-VVDV Kinase Assay; assay type: biochemical; conditions: enzymatic assay, ATP 200 uM
T2 construct: This construct contains residues T544-V976 of cKit (except for the D816V mutation and the deletion of residues V559 and V560); GST (N); TEV cleavage site (N); purchased deCODE Biostructures
T2 sequence (P10721 with tags, fused parts or gaps DEL559-560/D816V): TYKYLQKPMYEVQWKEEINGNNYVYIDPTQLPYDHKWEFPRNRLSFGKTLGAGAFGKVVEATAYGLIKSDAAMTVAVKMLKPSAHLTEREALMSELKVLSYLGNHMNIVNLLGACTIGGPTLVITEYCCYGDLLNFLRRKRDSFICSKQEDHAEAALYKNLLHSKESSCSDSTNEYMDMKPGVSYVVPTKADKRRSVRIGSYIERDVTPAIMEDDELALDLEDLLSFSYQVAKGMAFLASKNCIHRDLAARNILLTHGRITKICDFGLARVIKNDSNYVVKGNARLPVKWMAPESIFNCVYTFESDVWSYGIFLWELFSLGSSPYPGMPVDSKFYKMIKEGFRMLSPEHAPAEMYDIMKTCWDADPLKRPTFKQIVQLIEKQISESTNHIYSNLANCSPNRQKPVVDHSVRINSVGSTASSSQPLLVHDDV
Protocol: In this assay, the oxidation of NADH (measured by decrease in absorbance at 340 nm) was continuously monitored spectrophotometrically. […] The inhibition reaction was started by mixing serial diluted test compound with the above reaction mixture. The absorption at 340 nm was monitored continuously for 5 hours at 30° C. on Synergy 2 plate reader (BioTech). […] The protein construct was prepared by deCODE Biostructures using procedures known in the art. This construct contains […] of cKit (except for the D816V […]), an N-terminal tag, a GST-fusion sequence and a TEV cleavage site. This construct is identical to Seq ID no. 1 except for the D816V […].

[4] = biological target: T3, c-KIT V654A kinase (Seq ID no. 2) (Homo sapiens, UniProt P10721, V654A); test: c-KIT V654A Kinase Assay; assay type: biochemical; conditions: enzymatic assay, ATP 200 μM
T3 construct: V654A c-Kit (residues T544-V976 with N-terminal GST fusion, 47 nM); purchased deCODE Biostructures
T3 sequence (P10721 544-976 V654A): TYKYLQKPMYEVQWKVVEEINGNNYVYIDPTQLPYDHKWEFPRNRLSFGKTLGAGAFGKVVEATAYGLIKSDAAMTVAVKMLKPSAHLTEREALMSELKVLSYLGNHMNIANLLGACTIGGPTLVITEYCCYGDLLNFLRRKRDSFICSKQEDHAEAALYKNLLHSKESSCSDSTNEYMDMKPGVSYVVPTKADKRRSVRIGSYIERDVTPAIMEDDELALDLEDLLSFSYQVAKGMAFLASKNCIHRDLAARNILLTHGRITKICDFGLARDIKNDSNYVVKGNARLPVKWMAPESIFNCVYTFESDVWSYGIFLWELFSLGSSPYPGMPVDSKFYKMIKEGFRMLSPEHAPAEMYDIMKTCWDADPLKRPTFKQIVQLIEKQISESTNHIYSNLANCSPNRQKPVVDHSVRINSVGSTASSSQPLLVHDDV
Protocol: In this assay, the oxidation of NADH (measured by decrease in absorbance at 340 nm) was continuously monitored spectrophotometrically. […] The inhibition reaction was started by mixing serial diluted test compound with the above reaction mixture. The absorption at 340 nm was monitored continuously for 6 hours at 30° C. on Synergy 2 plate reader (BioTech).
The protein construct was prepared by deCODE Biostructures using procedures known in the art. The construct contains residues T544-V976 of cKit, an N-terminal tag, a GST-fusion sequence and a TEV cleavage site. This construct is identical to Seq ID no.

Chain of Phospho-KIT (Tyr719) in GIST48 cells (P10721 whole entry V560D/D820A, form open): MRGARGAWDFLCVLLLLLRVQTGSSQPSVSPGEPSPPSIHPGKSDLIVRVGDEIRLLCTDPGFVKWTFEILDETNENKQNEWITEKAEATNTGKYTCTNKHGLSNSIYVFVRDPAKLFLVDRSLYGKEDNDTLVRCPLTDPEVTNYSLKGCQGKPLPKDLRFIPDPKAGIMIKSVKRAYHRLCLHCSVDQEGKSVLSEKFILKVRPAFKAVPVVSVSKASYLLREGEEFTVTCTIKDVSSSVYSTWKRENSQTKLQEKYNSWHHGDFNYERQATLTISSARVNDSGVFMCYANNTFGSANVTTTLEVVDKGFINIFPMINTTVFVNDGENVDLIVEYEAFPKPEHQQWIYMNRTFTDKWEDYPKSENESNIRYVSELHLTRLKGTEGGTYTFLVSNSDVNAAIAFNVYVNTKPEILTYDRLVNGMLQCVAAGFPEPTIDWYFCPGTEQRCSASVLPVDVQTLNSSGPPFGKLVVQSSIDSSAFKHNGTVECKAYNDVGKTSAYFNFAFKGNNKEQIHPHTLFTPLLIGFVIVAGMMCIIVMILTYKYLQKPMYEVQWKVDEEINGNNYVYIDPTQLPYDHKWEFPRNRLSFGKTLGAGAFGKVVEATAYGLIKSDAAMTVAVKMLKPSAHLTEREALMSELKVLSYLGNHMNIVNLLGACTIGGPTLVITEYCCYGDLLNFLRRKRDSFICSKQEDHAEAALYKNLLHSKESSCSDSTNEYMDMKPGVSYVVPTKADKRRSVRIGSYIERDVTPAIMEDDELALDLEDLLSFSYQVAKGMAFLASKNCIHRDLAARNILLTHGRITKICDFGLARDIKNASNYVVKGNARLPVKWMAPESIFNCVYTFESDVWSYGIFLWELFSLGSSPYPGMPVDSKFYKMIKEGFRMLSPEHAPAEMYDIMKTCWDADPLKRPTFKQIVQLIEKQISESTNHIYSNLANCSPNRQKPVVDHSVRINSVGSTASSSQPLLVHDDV

| IC50 [1] | IC50 [2] | IC50 [3] | IC50 [4] | Compound |
| --- | --- | --- | --- | --- |
| 10 to 100 nM | < 10 nM | < 10 nM | < 10 nM | CCn1c(=O)c(-c2cc(NC(=O)Nc3ccccc3)c(F)cc2Cl)cc2cnc(N)cc21 [Example 21, 1-(5-(7-amino-1-ethyl-2-oxo-1,2-dihydro-1,6-naphthyridin-3-yl)-4-chloro-2-fluorophenyl)-3-phenylurea] |
| 10 to 100 nM | – | > 1000 nM | 100 to 1000 nM | CCn1c(=O)c(-c2cc(NC(=O)Nc3cccc(CN4CCN(C)CC4)c3)c(F)cc2Cl)cc2cnc(NC)cc21 [Example 79, 1-(4-chloro-5-(1-ethyl-7-(methylamino)-2-oxo-1,2-dihydro-1,6-naphthyridin-3-yl)-2-fluorophenyl)-3-(3-((4-methylpiperazin-1-yl)methyl)phenyl)urea] |
| 10 to 100 nM | < 10 nM | – | 10 to 100 nM | CCn1c(=O)c(-c2cc(NC(=O)Nc3cc(F)cc(CN4CCN(C)CC4)c3)c(F)cc2Cl)cc2cnc(NC)cc21 [Example 88, 1-(4-chloro-5-(1-ethyl-7-(methylamino)-2-oxo-1,2-dihydro-1,6-naphthyridin-3-yl)-2-fluorophenyl)-3-(3-fluoro-5-((4-methylpiperazin-1-yl)methyl)phenyl)urea] |
